US20260048052A1, “METHODS OF TREATING TENOSYNOVIAL GIANT CELL TUMORS” (Deciphera Pharmaceuticals, LLC, priority 2023, published 2026)
Values joined by “and” are separate entries in the source; they are usually repeats but may differ in a detail not shown here. Equal values may be shown once.

How the values were obtained:
[1] = system: patients with TGCT not amenable to surgery; experiment: Phase 3 study of vimseltinib in patients with TGCT: safety (TEAEs, Part 1); format: in vivo, human
Experimental: This study is a two-part, randomized, double-blind, placebo-controlled study to assess the efficacy and safety of vimseltinib in patients with TGCT not amenable to surgery with no prior anti-CSF1/CSF1R therapy (prior therapy with imatinib or nilotinib allowed). In Part 1, patients (n=123) were randomized two-to-one to receive either 30 mg twice weekly of vimseltinib (n=83) or placebo (n=40) for 24 weeks. Vimseltinib or matching placebo was administered orally each week on day 1 and day 5 (±1 day) at approximately the same time of day on an empty stomach, with ≥24 hours between doses. An MRI of the affected joint was performed at screening, cycle 4 day 1 (week 13; ±7 days), and at the end of Part 1. Part 2 is an ongoing open-label study, in which patients from both the vimseltinib and placebo arms receive treatment with vimseltinib.
The primary endpoint of the study is the objective response rate (ORR) at Week 25 as measured by Response Evaluation Criteria in Solid Tumors (RECIST) version 1.1 by blinded independent radiologic review (IRR). Key secondary endpoints included the objective response rate at Week 25 by IRR per tumor volume score (TVS), active range of motion (ROM) at Week 25, PROMIS physical function (PROMIS-PF) score, worst stiffness numeric rating scale (NRS) score at Week 25, EQ-visual analogue scale (EQ-VAS) score at Week 25, and greater than or equal to 30% reduction in Brief Pain Inventory (BPI) in worst pain and less than 30% increase in narcotic use (BPI-30) at Week 25. Other secondary endpoints included duration of response (DOR) and safety.
Vimseltinib was well-tolerated and the safety profile in the study was consistent with previously disclosed data. […] Patients with treatment-emergent adverse events (TEAEs) leading to treatment discontinuation was 5% in the vimseltinib arm. The table below lists TEAEs greater than 15% in either arm during Part 1 of the study.

patients with TGCT = experiment: Phase 1/2 open-label, multicenter study of vimseltinib in patients with TGCT: efficacy; format: in vivo, human; conditions: for Worst stiffness NRS response rate / Worst stiffness NRS response rate, n of responders: Week 25, response = at least a 2-point decrease; for PROMIS-PF response rate / PROMIS-PF response rate, No. of responders: Week 25, response = at least a 3-point increase; for Active ROM response rate / Active ROM response rate, No. of responders: Week 25, response = at least a 10% increase
Experimental: This is a Phase 1/2 open-label, multicenter study evaluating the safety and efficacy of vimseltinib in patients with TGCT. In Phase 1, 32 patients enrolled in three cohorts across multiple doses. In Phase 2, 66 patients enrolled in two cohorts at the recommended Phase 2 dose of 30 mg twice weekly: Cohort A (n=46) in TGCT patients with no prior anti-CSF1/CSF1R therapy (prior therapy with imatinib or nilotinib allowed); and Cohort B (n=20) in TGCT patients with prior anti-CSF1/CSF1R therapy (prior therapy with imatinib or nilotinib alone not eligible). With regards to antitumor activity and treatment duration, 93 patients were evaluable for efficacy by RECIST version 1.1 at the data cutoff date.

[2] = 30 mg twice weekly, n=83, Part 1
[3] = Cohort A, Partial Response per RECIST v1.1 at Week 25 by IRR (n = 17)
[4] = Cohort A, Stable Disease per RECIST v1.1 at Week 25 by IRR (n = 22)
[5] = Cohort B (20 patients), Week 25
[6] = Cohort B, Partial Response per RECIST v1.1 at Week 25 by IRR (n = 5)
[7] = Cohort B, Stable Disease per RECIST v1.1 at Week 25 by IRR (n = 9)
[8] = Phase 2 Cohort A (n = 45), second data cutoff
[9] = Phase 2 Cohort B (n = 13), second data cutoff
[10] = Phase 2 Cohort B (n = 19), second data cutoff

Cc1nc(-c2cnc(NC(C)C)n(C)c2=O)ccc1Oc1ccnc(-c2cnn(C)c2)c1 [Vimseltinib, 2-(isopropylamino)-3-methyl-5-(6-methyl-5-((2-(1-methyl-IH-pyrazol-4-yl)pyridin-4-yl)oxy)pyridin-2-yl)pyrimidin-4(3H)-one]
cholestatic hepatotoxicity ([1]; 30 mg twice weekly): no evidence of cholestatic hepatotoxicity | related SAE ([1]; 30 mg twice weekly): one related SAE of subcutaneous abscess | severe adverse events (SAE) per patient ([1]; 30 mg twice weekly): no severe adverse event (SAE) occurred in more than one patient | tolerability ([1]; 30 mg twice weekly): well-tolerated | TEAE AST increased, All Grades [1, 2]: 19 (23%) n (%) | TEAE AST increased, Grade 3-4, number of patients [1, 2]: 0 n | TEAE Arthralgia, All Grades [1, 2]: 16 (19%) n (%) | TEAE Arthralgia, Grade 3-4, number of patients [1, 2]: 0 n | TEAE Asthenia, All Grades [1, 2]: 22 (27%) n (%) | TEAE Asthenia, Grade 3-4, number of patients [1, 2]: 1 n | TEAE Asthenia, Grade 3-4, percent of patients [1, 2]: (1%) | TEAE CPK increased, All Grades [1, 2]: 20 (24%) n (%) | TEAE CPK increased, Grade 3-4, number of patients [1, 2]: 8 n | TEAE CPK increased, Grade 3-4, percent of patients [1, 2]: 10% | TEAE Diarrhea, All Grades [1, 2]: 10 (12%) n (%) | TEAE Diarrhea, Grade 3-4, number of patients [1, 2]: 0 n | TEAE Edema peripheral, All Grades [1, 2]: 15 (18%) n (%) | TEAE Edema peripheral, Grade 3-4, number of patients [1, 2]: 0 n | TEAE Face edema, All Grades [1, 2]: 26 (31%) n (%) | TEAE Face edema, Grade 3-4, number of patients [1, 2]: 1 n | TEAE Face edema, Grade 3-4, percent of patients [1, 2]: (1%) | TEAE Fatigue, All Grades [1, 2]: 27 (33%) n (%) | TEAE Fatigue, Grade 3-4, number of patients [1, 2]: 0 n | TEAE Headache, All Grades [1, 2]: 23 (28%) n (%) | TEAE Headache, Grade 3-4, number of patients [1, 2]: 1 n | TEAE Headache, Grade 3-4, percent of patients [1, 2]: (1%) | TEAE Hypertension, All Grades [1, 2]: 14 (17%) n (%) | TEAE Hypertension, Grade 3-4, number of patients [1, 2]: 4 n | TEAE Hypertension, Grade 3-4, percent of patients [1, 2]: (5%) | TEAE Nausea, All Grades [1, 2]: 21 (25%) n (%) | TEAE Nausea, Grade 3-4, number of patients [1, 2]: 0 n | TEAE Periorbital edema, All Grades [1, 2]: 37 (45%) n (%) | TEAE Periorbital edema, Grade 3-4, number of patients [1, 2]: 3 n | TEAE Periorbital edema, Grade 3-4, percent of patients [1, 2]: (4%) | TEAE Pruritus, All Grades [1, 2]: 24 (29%) n (%) | TEAE Pruritus, Grade 3-4, number of patients [1, 2]: 2 n | TEAE Pruritus, Grade 3-4, percent of patients [1, 2]: (2%) | TEAE Rash maculo-papular, All Grades [1, 2]: 16 (19%) n (%) | TEAE Rash maculo-papular, Grade 3-4, number of patients [1, 2]: 1 n | TEAE Rash maculo-papular, Grade 3-4, percent of patients [1, 2]: (1%) | TEAE Rash, All Grades [1, 2]: 16 (19%) n (%) | TEAE Rash, Grade 3-4, number of patients [1, 2]: 0 n | TEAE CPK increased, Grade 3-4, percent of patients ([1]; 30 mg twice weekly, n=83, Part 1, listed as Vimseltinb): (10%) | Patients with TEAEs leading to treatment discontinuation ([1]; vimseltinib arm): 5% | Worst stiffness NRS at Week 25, mean (patients with TGCT; Cohort A (32 patients)): 3.1 | PROMIS-PF at Week 25, mean (patients with TGCT; Cohort A (35 patients)): 43.9 | BPI worst pain response rate (patients with TGCT; Cohort A (46 patients), Week 25): (50) % | BPI worst pain response rate, No. of responders (patients with TGCT; Cohort A (46 patients), Week 25, 30% or greater decrease without 30% or greater increase in narcotic analgesic use): 23 No. | Average pain responder (patients with TGCT; [3]): 12 (71) No. (%) | Worst pain responder (patients with TGCT; [3]): 10 (59) No. (%) | Average pain responder (patients with TGCT; [4]): 12 (55) No. (%) | Worst pain responder (patients with TGCT; [4]): 12 (55) No. (%) | PROMIS-PF change from baseline, mean (patients with TGCT; Cohort A, Week 25): 3.9 | Worst stiffness NRS change from baseline, mean (patients with TGCT; Cohort A, Week 25): −1.8 | Worst stiffness NRS response rate (patients with TGCT; Cohort A): (66) % | Worst stiffness NRS response rate, n of responders (patients with TGCT; Cohort A): 21 n | PROMIS-PF response rate (patients with TGCT; Cohort A): (49) % | PROMIS-PF response rate, No. of responders (patients with TGCT; Cohort A): 17 No. | Active ROM response rate (patients with TGCT; Cohort A): (42) % | Active ROM response rate, No. of responders (patients with TGCT; Cohort A): 19 No. | patients with BPI response for both worst pain and average pain (patients with TGCT; Cohort B (11/20), Week 25, ≥30% reduction in pain without ≥30% increase in narcotic analgesic use): 55% | Worst stiffness NRS at Week 25, mean (patients with TGCT; Cohort B (14 patients)): 2.6 | PROMIS-PF at Week 25, mean (patients with TGCT; Cohort B (15 patients)): 49.5 | BPI worst pain response rate (patients with TGCT; [5]): (55) % | BPI worst pain response rate, No. of responders (patients with TGCT; [5]): 11 No. | Average pain responder (patients with TGCT; [6]): 2 (40) No. (%) | Worst pain responder (patients with TGCT; [6]): 2 (40) No. (%) | Average pain responder (patients with TGCT; [7]): 7 (78) No. (%) | Worst pain responder (patients with TGCT; [7]): 7 (78) No. (%) | BPI responders among patients with objective responses by RECIST v1.1 (patients with TGCT; Cohort B, Week 25): 40% | BPI responders among patients with stable disease (patients with TGCT; Cohort B, Week 25): 78% | PROMIS-PF change from baseline, mean (patients with TGCT; Cohort B, Week 25): 6.2 | Worst stiffness NRS change from baseline, mean (patients with TGCT; Cohort B, Week 25): −2.2 | patients with clinically meaningful improvements in NRS stiffness (patients with TGCT; Cohort B, Week 25): 58% | patients with clinically meaningful improvements in PROMIS-PF (patients with TGCT; Cohort B, Week 25): 63% | Worst stiffness NRS response rate (patients with TGCT; Cohort B): (71) % | Worst stiffness NRS response rate, n of responders (patients with TGCT; Cohort B): 10 n | PROMIS-PF response rate (patients with TGCT; Cohort B): (80) % | PROMIS-PF response rate, No. of responders (patients with TGCT; Cohort B): 12 No. | Active ROM response rate (patients with TGCT; Cohort B): (26) % | Active ROM response rate, No. of responders (patients with TGCT; Cohort B): 5 No. | ORR per RECIST v1.1 by IRR (patients with TGCT; Phase 1 (n = 32), multiple doses, first data cutoff): 72% | progression as assessed by IRR (patients with TGCT; Phase 2, second data cutoff): no patients progressed | Active ROM at Week 25, mean (patients with TGCT; Phase 2 Cohort A (33 patients), second data cutoff): 77.8% | ORR per RECIST v1.1 by IRR at Week 25 (patients with TGCT; Phase 2 Cohort A (n = 45), 30 mg twice weekly, first data cutoff): 38% | ORR per RECIST v1.1 by IRR (patients with TGCT; Phase 2 Cohort A (n = 45), 30 mg twice weekly, no prior anti-CSF1/CSF1R therapy, first data cutoff): 64% | ORR per RECIST v1.1 by IRR (patients with TGCT; [8]): 64% | ORR per RECIST v1.1 by IRR at Week 25 (patients with TGCT; [8]): 38% | ORR per TVS by IRR (patients with TGCT; [8]): 62% | ORR per TVS by IRR at Week 25 (patients with TGCT; [8]): 51% | Active ROM, change from baseline at Week 25, mean (SD) (patients with TGCT; Phase 2 Cohort A, second data cutoff): 19.7 (43.5) percentage points and 19.7 percentage points | Active ROM of the affected joint at Week 25, mean (SD) (patients with TGCT; [9]): 65.2 (37.5) % and 65.2% | Active ROM, change from baseline to Week 25, mean (SD) (patients with TGCT; [9]): 14.1 (27.4) percentage points and 14.1 percentage points | ORR per RECIST v1.1 by IRR (patients with TGCT; Phase 2 Cohort B (n = 16), 30 mg twice weekly, prior anti-CSF1/CSF1R therapy, first data cutoff): 44% | ORR per RECIST v1.1 by IRR (patients with TGCT; [10]): 37% | ORR per RECIST v1.1 by IRR at Week 25 (patients with TGCT; [10]): 26% | ORR per TVS by IRR (patients with TGCT; [10]): 42% | ORR per TVS by IRR at Week 25 (patients with TGCT; [10]): 26% | symptomatic benefit across secondary efficacy measures (ORR by TVS, active range of motion, physical function, stiffness, pain) (patients with TGCT; Phase 2 Cohorts A and B, Week 25): clinically meaningful symptomatic benefit | Active ROM at Week 25: patients with decrease (patients with TGCT; Phase 2 cohort A, FIG. 9A): 4 n | Active ROM at Week 25: patients with increase from baseline (patients with TGCT; Phase 2 cohort A, FIG. 9A): 23 n | Active ROM at Week 25: patients with no change (patients with TGCT; Phase 2 cohort A, FIG. 9A): 5 n | Active ROM at Week 25: patients with decrease (patients with TGCT; Phase 2 cohort B, FIG. 9B): 1 n | Active ROM at Week 25: patients with increase from baseline (patients with TGCT; Phase 2 cohort B, FIG. 9B): 9 n | Active ROM at Week 25: patients with no change (patients with TGCT; Phase 2 cohort B, FIG. 9B): 3 n
